Measured values as given in patent US9023789B2, “Amylin analogs and pharmaceutical compositions thereof” (Novo Nordisk A/S, priority 2012, dated 2015).
≈ marks a conversion by molar mass, not a printed value. Read-outs that look alike come from different tables or passages of the source. Numbered stars: 1 amine (or outer) side, 2 acyl side, 3 side chain; on linkers, the order of the positions; unused ones are H or OH. Bridge positions count the residues as written; N and C are the ends. Peptide text beside a SMILES is read from it. * marks the point of attachment. C20 diacid = O=C(O)CCCCCCCCCCCCCCCCCCC(=O)*; γGlu = O=C(O)[C@H](CCC(=O)[*:2])N[*:1]

Legend:
[1] = biological target: T1, human amylin 3(a) receptor (human calcitonin receptor + RAMP-3) in BHK570 cells (Homo sapiens, UniProt O60896+P30988); assay: ASSAY (II)a functional assay, human amylin receptor (CRE luciferase); assay type: cell-based; conditions: for EC50: human amylin receptor functional potency, assay (II), read-out: hAmylin-R funct. EC50
T1 construct: expressed in transfected cells
Method in brief: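 Receptor activation is measured as cAMP-driven CRE-luciferase expression in BHK cells expressing the calcitonin receptor, with RAMP-3 co-expressed to form the amylin 3(a) receptor. Cells are exposed to compound for 3 hours at 37° C, and luciferase is then quantified by luminescence.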

[2] = ASSAY (IV) determination of solubility; assay type: physicochemical
Method in brief: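 Samples of polypeptide, prepared from a water stock at […] and diluted 1:1 into 100 mM buffers spanning pH 3.0 to 8.0, stood 18 hours at room temperature. Polypeptide concentration was then determined by UPLC following centrifugation.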

[3] = biological target: T2, human amylin receptor (membranes from Amylin 3(a)/CRE-luc cells) (Homo sapiens, UniProt O60896+P30988); assay: ASSAY (V) binding to the human amylin receptor (SPA, 125I-rat amylin); conditions: for IC50: Table 4, read-out: hAmylin-R bind IC50;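 for all read-outs here: competition binding of cell membranes (35 ng/µL) mixed with SPA beads in 384-well plates at 40 µL total volume, read by scintillation counting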
T2 construct: expressed in transfected cells
T2 sequence (P30988 25-474): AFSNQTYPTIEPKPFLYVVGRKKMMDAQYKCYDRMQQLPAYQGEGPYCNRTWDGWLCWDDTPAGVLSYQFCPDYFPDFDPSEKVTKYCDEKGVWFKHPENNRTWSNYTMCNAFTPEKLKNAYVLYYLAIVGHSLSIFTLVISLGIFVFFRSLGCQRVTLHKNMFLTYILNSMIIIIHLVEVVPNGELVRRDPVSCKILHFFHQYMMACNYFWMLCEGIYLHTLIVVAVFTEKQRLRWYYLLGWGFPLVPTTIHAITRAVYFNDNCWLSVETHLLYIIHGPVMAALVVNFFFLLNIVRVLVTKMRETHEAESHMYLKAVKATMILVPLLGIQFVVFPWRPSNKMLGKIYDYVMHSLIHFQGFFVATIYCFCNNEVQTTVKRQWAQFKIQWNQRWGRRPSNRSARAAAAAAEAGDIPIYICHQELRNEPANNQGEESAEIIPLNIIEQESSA
T2 sequence (O60896 24-148 partner): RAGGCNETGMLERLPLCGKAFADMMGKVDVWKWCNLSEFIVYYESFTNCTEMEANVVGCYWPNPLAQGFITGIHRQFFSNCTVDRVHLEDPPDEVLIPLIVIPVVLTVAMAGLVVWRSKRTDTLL

[4] = biological target: T3, rat amylin receptor (rat calcitonin receptor + rat RAMP 3) (Rattus norvegicus, UniProt P32214+Q9JJ73); assay: ASSAY (VI) binding to the rat amylin receptor; conditions: for IC50: binding to rat amylin receptor, read-out: rAmylin-R bind IC50
T3 construct: expressed in transfected cells; host or cells: BHK tk'ts 13 (transient, FuGENE 6), membranes
T3 sequence (P32214 25-479 isoform P32214-2 limits assumed): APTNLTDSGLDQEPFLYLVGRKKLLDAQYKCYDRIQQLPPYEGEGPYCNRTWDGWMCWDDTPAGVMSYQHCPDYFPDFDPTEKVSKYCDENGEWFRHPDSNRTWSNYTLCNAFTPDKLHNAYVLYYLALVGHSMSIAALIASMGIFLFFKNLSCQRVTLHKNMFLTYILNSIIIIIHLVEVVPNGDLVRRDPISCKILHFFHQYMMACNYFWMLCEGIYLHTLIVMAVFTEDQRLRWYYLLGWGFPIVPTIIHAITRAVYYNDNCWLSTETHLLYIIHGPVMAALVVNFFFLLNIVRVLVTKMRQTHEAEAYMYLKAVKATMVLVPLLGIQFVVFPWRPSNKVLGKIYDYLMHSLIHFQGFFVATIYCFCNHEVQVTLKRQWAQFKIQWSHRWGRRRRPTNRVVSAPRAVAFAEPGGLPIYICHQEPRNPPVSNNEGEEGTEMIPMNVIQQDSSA
T3 sequence (Q9JJ73 23-147 partner): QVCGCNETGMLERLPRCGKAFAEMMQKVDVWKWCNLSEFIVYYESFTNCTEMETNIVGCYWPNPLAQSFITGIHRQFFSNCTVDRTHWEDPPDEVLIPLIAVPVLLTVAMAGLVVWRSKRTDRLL
Method in brief: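 Membranes for this rat amylin receptor binding assay came from BHK tk′ts 13 cells. The cells were transiently transfected with rat calcitonin receptor using the FuGENE® 6 reagent from Roche, as the manufacturer recommends. The cells were collected approximately 48 hours after transfection, and membranes were then prepared.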

[5] = biological target: T4, rat calcitonin receptor (Rattus norvegicus, UniProt P32214); assay: ASSAY (VIII) binding to the rat calcitonin receptor; conditions: Table 7, read-out: rCTR bind IC50
T4 construct: expressed in transfected cells; host or cells: BHK tk'ts 13 (transient, FuGENE 6), membranes
T4 sequence (P32214 25-479 isoform P32214-2 limits assumed): T3 sequence (P32214 25-479 isoform P32214-2 limits assumed)
Method in brief: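 Cell membranes for binding came from BHK tk′ts 13 cells harvested approximately 48 hours after transient transfection with the rat receptor.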

[6] = hCTR funct. EC50 / hAmylin-R funct. EC50
[7] = hCTR funct. EC50 divided by hAmylin-R funct. EC50
[8] = hCTR funct. EC50 over hAmylin-R funct. EC50
[9] = human functional selectivity: hCTR funct. EC50 / hAmylin-R funct. EC50
[10] = bistrispropane buffer, pH 6.5, read-out: Solubility pH 6.5 Concentration
[11] = bistrispropane buffer, pH 7.5, read-out: Solubility pH 7.5 Concentration
[12] = bistrispropane buffer, pH 6.0, read-out: Solubility pH 6.0 Concentration
[13] = bistrispropane buffer, pH 7.0, read-out: Solubility pH 7.0 Concentration
[14] = bistrispropane buffer, pH 8.0, read-out: Solubility pH 8.0 Concentration
[15] = glycylglycine buffer, pH 3.0, read-out: Solubility pH 3.0 Concentration
[16] = glycylglycine buffer, pH 4.0, read-out: Solubility pH 4.0 Concentration
[17] = glycylglycine buffer, pH 5.0, read-out: Solubility pH 5.0 Concentration
[18] = Table 5, selectivity, hCTR bind IC50 / hAmylin-R bind IC50
[19] = Table 7, human binding selectivity, included for comparison
[20] = Table 7a (preferred compounds), human binding selectivity, included for comparison
[21] = Table 7, rat binding selectivity, rCTR IC50 / rAmylin-R IC50
[22] = Table 7a (preferred compounds), rat binding selectivity, rCTR IC50 / rAmylin-R IC50

Row | Ratio hCT/hAmylin funct. [1, 6] | Ratio hCT/hAmylin funct. [1, 7] | Ratio hCT/hAmylin funct. [1, 8] | EC50 [1] | Ratio hCT/hAmylin funct. [1, 9] | solubility at 18 h [2, 10] | solubility at 18 h [2, 11] | solubility at 18 h [2, 12] | solubility at 18 h [2, 13] | solubility at 18 h [2, 14] | solubility at 18 h [2, 15] | solubility at 18 h [2, 16] | solubility at 18 h [2, 17] | IC50 [3] | Ratio hCT/hAmylin binding [3, 18] | Ratio hCT/hAmylin binding [3, 19] | Ratio hCT/hAmylin binding [3, 20] | IC50 ([4]; Table 7) | Ratio rCT/rAmylin binding [4, 21] | Ratio rCT/rAmylin binding [4, 22] | Compound | further results
1 | 4.0 | 4.0 | 4.0 | 92 pM | 4.0 | ≥ 200 µM | ≥ 200 µM | ≥ 200 µM | ≥ 200 µM | ≥ 200 µM | ≥ 200 µM | ≥ 200 µM | ≥ 200 µM | 970 pM | 2.3 | 2.3 | 2.3 | 514 pM | 14.3 | 14.3 | CC[C@H](C)[C@H](NC(=O)[C@H](C)NC(=O)CNC(=O)[C@H](Cc1ccccc1)NC(=O)[C@H](CC(N)=O)NC(=O)[C@@H]1CCCN1C(=O)[C@H](CO)NC(=O)[C@H](CO)NC(=O)[C@H](Cc1c[nH]cn1)NC(=O)[C@H](CCCNC(=N)N)NC(=O)[C@H](CC(C)C)NC(=O)[C@H](Cc1ccccc1)NC(=O)[C@H](CCC(=O)O)NC(=O)[C@H](C)NC(=O)[C@H](CC(C)C)NC(=O)[C@H](CCCNC(=N)N)NC(=O)[C@H](CCC(N)=O)NC(=O)[C@@H](NC(=O)[C@H](C)NC(=O)[C@@H]1CSSC[C@H](NC(=O)[C@H](CCCCN)NC(=O)CC[C@H](NC(=O)CCCCCCCCCCCCCCCCCCC(=O)O)C(=O)O)C(=O)N[C@@H](CC(N)=O)C(=O)N[C@@H]([C@@H](C)O)C(=O)N[C@@H](C)C(=O)N[C@@H]([C@@H](C)O)C(=O)N1)[C@@H](C)O)C(=O)N1CCC[C@H]1C(=O)N[C@@H](CO)C(=O)N1CCC[C@H]1C(=O)N[C@H](C(=O)N[C@@H](CC(N)=O)C(=O)N[C@H](C(=O)NCC(=O)N[C@@H](CO)C(=O)N[C@@H](CC(N)=O)C(=O)N[C@H](C(=O)N[C@@H](Cc1ccc(O)cc1)C(N)=O)[C@@H](C)O)C(C)C)[C@@H](C)O [Example 37] ({C20 diacid-γGlu}-KCNTATCATQRLAEFLRHSSPNFGAIPSPTNVGSNTY-NH2; disulfide 2-7 (inferred)) | IC50 [5]: 7350 pM
2 | 4.9 | 4.9 | 4.9 | 109 pM | 4.9 | ≥ 200 µM | 69 µM (≈ 309 µg/mL) | ≥ 200 µM | 182 µM (≈ 814 µg/mL) | 83 µM (≈ 371 µg/mL) | ≥ 200 µM | ≥ 200 µM | ≥ 200 µM | 426 pM | 68.6 | 68.6 | 68.6 | 8070 pM | 60.9 | 60.9 | CC[C@H](C)[C@H](NC(=O)[C@H](C)NC(=O)CNC(=O)[C@H](Cc1ccccc1)NC(=O)[C@H](CC(N)=O)NC(=O)[C@@H]1CCCN1C(=O)[C@H](CO)NC(=O)[C@H](CO)NC(=O)[C@H](Cc1c[nH]cn1)NC(=O)[C@H](CCCNC(=N)N)NC(=O)[C@H](CC(C)C)NC(=O)[C@H](Cc1ccccc1)NC(=O)[C@H](C)NC(=O)[C@H](C)NC(=O)[C@H](CC(C)C)NC(=O)[C@H](CCCNC(=N)N)NC(=O)[C@H](CCC(N)=O)NC(=O)[C@@H](NC(=O)[C@H](C)NC(=O)[C@@H]1CSSC[C@H](NC(=O)[C@H](CCCNC(=N)N)NC(=O)CNC(=O)CC[C@H](NC(=O)CCCCCCCCCCCCCCCCCCC(=O)O)C(=O)O)C(=O)N[C@@H](CC(N)=O)C(=O)N[C@@H]([C@@H](C)O)C(=O)N[C@@H](C)C(=O)N[C@@H]([C@@H](C)O)C(=O)N1)[C@@H](C)O)C(=O)N1CCC[C@H]1C(=O)N[C@@H](CO)C(=O)N[C@@H](CO)C(=O)N[C@H](C(=O)N[C@@H](CC(N)=O)C(=O)N[C@H](C(=O)NCC(=O)N[C@@H](Cc1c[nH]cn1)C(=O)N[C@@H](CC(N)=O)C(=O)N[C@H](C(=O)N[C@@H](Cc1ccc(O)cc1)C(N)=O)[C@@H](C)O)C(C)C)[C@@H](C)O [Example 101] ({C20 diacid-γGlu}-GRCNTATCATQRLAAFLRHSSPNFGAIPSSTNVGHNTY-NH2; disulfide 3-8) | Ratio hCT/hAmylin binding ([3]; Table 5a, selectivity, hCTR bind IC50 / hAmylin-R bind IC50): 68.6; Ratio hCT/hAmylin binding ([3]; Table 5b, selectivity, hCTR bind IC50 / hAmylin-R bind IC50): 68.6; Ratio hCT/hAmylin binding ([3]; Table 5c, selectivity, hCTR bind IC50 / hAmylin-R bind IC50): 68.6; Ratio hCT/hAmylin binding ([3]; ratio of human calcitonin receptor binding IC50 to human amylin receptor binding IC50): 68.6; Ratio rCT/rAmylin binding ([4]; ratio of rCTR bind IC50 to rAmylin-R bind IC50): 60.9; IC50 [5]: 492000 pM
